From publication PMC6983056, “Carbazole Alkaloids from Clausena anisum-olens: Isolation, Characterization, and Anti-HIV Evaluation” (Molecules, 2019)
In brackets after ≈: the same amount, converted by molar mass.

Columns and labels:
HIV-1 = test system: HIV-1; parameters: method as in PMID 16177980; conditions: cited from earlier work
[1] = test system: HIV replication in H9 lymphocytes; parameters: method as in PMID 31109016, PMID 10021911; conditions: cited from earlier work
[2] = test system: human immunodeficiency virus type-1 integrase; conditions: cited from earlier work
[3] = test system: HIV-1NL4-3 Nanoluc-sec virus; assay: microbe, parasite or virus in culture; format: cell-based; conditions: for EC50: Human immunodeficiency virus 1, NL43, MT4, 72 h, read-out: EC50 (μg/mL) NL4-3; for selective anti-HIV activity (class symbol printed in EC50 column): CC50/EC50 criterion
From the text: MT4 cells (1 × 10^5 cells mL^−1) in 96 well plates were infected by HIV-1 NL4-3 Nanoluc-sec at a dose of 50 TCID50/well in the presence of each test compound at various concentrations. On Day 3 post-infection, supernatants were collected and assayed for luciferase activity using the Nano-Glo Luciferase Assay System (Promega, Madison, WI, USA). The antiviral potency was defined as the compound concentration that reduces the luciferase activity by 50% (EC50).

[4] = CytoTox-Glo cytotoxicity assay against MT4 cells; format: cell-based; conditions: human, 50% cytotoxic concentration, MT-4 cells, read-out: CC50 (μg/mL) MT4
Protocol: The cytotoxicity of the compound against MT4 cells was assessed using a CytoTox-Glo cytotoxicity assay (Promega, Madison, WI, USA). MT-4 cells were cultured in the presence of various concentrations of each test compound for 3 days, and the 50% cytotoxic concentration (CC50) causing a 50% reduction of cell viability was determined by following the manufacturer’s protocol.

[5] = test system: HIV replication in C8166 cells; parameters: method as in PMID 15771893; conditions: in vitro; cited from earlier work
HIV [6] = test system: HIV; parameters: method as in PMID 10757740; conditions: XTT-tetrazolium assay; cited from earlier work
HIV [7] = conditions: cited from earlier work

COc1ccc2c(c1)[nH]c1cc(OC)c(C=O)cc12 [3-formyl-2,7-dimethoxycarbazole]
anti-HIV-1 effects EC50 (HIV-1): 7.4 µg/mL
potential therapeutic index (PTI) (HIV-1): 8.0

COc1cc2c(c3cnccc13)c1ccccc1n2C [5-methoxy-7-methyl-7H-pyrido[4,3-c]carbazole]
therapeutic index (TI) ([1]; H9 lymphocytes): 503
EC50, inhibition of HIV replication in H9 lymphocytes [1]: 0.0054 µg/mL

Cc1cc2c(c3c1[nH]c1cc(Cl)c(O)cc13)C(=O)N(CCN(C)C)C2=O [8-Chloro-2-[2-(dimethylamino)ethyl]-9-hydroxy-5-methylpyrrolo[3,4-c]carbazole-1,3(2H,6H)-dione]
strand-transfer inhibitory activity [2]: potent strand-transfer inhibitory activity

Cc1cn([C@H]2C[C@H](N=[N+]=[N-])[C@@H](CO)O2)c(=O)[nH]c1=O [AZT, azidothymidine]
EC50 [3]: 0.0055 ± 0.0018 µg/mL (≈ 0.0206 µM)
CC50 at 3 days [4]: > 0.1 µg/mL

COC(=O)c1cc2c(cc1C)[nH]c1ccccc12 [Compound 1, 2-methyl-9H-carbazole-3-methyl carboxylate]
TI (CC50/EC50; SI in text) ([3]; CC50 MT4 / EC50 NL4-3): 7.1
EC50 [3]: 2.4 ± 0.53 µg/mL (≈ 10 µM)
CC50 at 3 days [4]: 17 ± 2.5 µg/mL (≈ 71 µM)

COc1ccc(OC)c2c1[nH]c1cc(O)c(C)cc12 [Compound 2, 5,8-dimethoxy-3-methyl-9H-carbazol-2-ol]
EC50 [3]: 3.7 µg/mL (≈ 14.4 µM)
CC50 at 3 days [4]: 15.2 ± 3.1 µg/mL (≈ 59.1 µM)

COc1ccc2c(c1)[nH]c1ccc(C(=O)O)cc12 [Compound 3, clausine N]
selective anti-HIV activity (class symbol printed in EC50 column) [3]: *- ^d (no selective anti-HIV activity (CC50/EC50 < 5))

CC1(C)C=Cc2c(c(C=O)cc3c2[nH]c2c(O)cccc23)O1 [Compound 4, heptazolicine]
selective anti-HIV activity (class symbol printed in EC50 column) [3]: *- ^d (no selective anti-HIV activity (CC50/EC50 < 5))

CC1(C)C=Cc2c(ccc3c2[nH]c2cc(O)c(C=O)cc23)O1 [Compound 5, clauszoline B]
selective anti-HIV activity (class symbol printed in EC50 column) [3]: *- ^d (no selective anti-HIV activity (CC50/EC50 < 5))

O=Cc1ccc2[nH]c3cc(O)ccc3c2c1 [Compound 7, 7-dihydroxy-9H-carbazole-3-carboxaldehyde]
EC50 [3]: > 25 µg/mL
CC50 at 3 days [4]: > 25 µg/mL

COc1ccc2[nH]c3c(O)cc(C=O)cc3c2c1 [Compound 8, clausine I]
selective anti-HIV activity (class symbol printed in EC50 column) [3]: *- ^d (no selective anti-HIV activity (CC50/EC50 < 5))

COc1cc2[nH]c3ccccc3c2cc1C=O [O-methylmukonal]
anti-HIV-1 effects EC50 (HIV-1): 2.7 µg/mL
potential therapeutic index (PTI) (HIV-1): 56.7

COc1ccc2c(c1)[nH]c1cc(OC)c(C(=O)O)cc12 [clauszoline-J]
anti-HIV-1 effects EC50 (HIV-1): 8.2 µg/mL
potential therapeutic index (PTI) (HIV-1): 1.6

COc1ccc2[nH]c3cc(O)c(C)cc3c2c1CC=C(C)C [glybomine B]
IC50, inhibition of HIV replication in C8166 cells [5]: 9.73 µg/mL

Cc1cc2c(cc1O)[nH]c1ccc3c(c12)C=CC(C)(C)O3 [glycoborinine]
IC50, inhibition of HIV replication in C8166 cells [5]: 4.47 µg/mL

CC(C)=CCc1cc2c(cc1O)[nH]c1ccc(C)cc12 [siamenol]
HIV-inhibitory activity EC50 (HIV [6]): 2.6 µg/mL
maximum protection (HIV [6]): 50–60%

C[C@@]1(C(=O)O)[C@@H](O)CC[C@]2(C)c3cc4c(cc3CC[C@@H]12)[nH]c1ccccc14 [xiamycin]
anti-HIV activity (HIV [7]): selective anti-HIV activity

clausine-O [Compound 6]
selective anti-HIV activity (class symbol printed in EC50 column) [3]: *- ^d (no selective anti-HIV activity (CC50/EC50 < 5))
